Experiments:
[1] = molecular target: GSK3β (Homo sapiens, UniProt P49841); assay: GSK3β ATP depletion assay; assay type: biochemical; conditions: read-out: GSK3b IC50
In short: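 Kinase activity is read as ATP consumption: luciferase luminescence reports the ATP remaining once roughly half of the 2 μM ATP is used. Reaction mix: 5 nM GSK3β, 10 μM b-CREB peptide, 50 mM Tris pH 7.5, 15 mM MgCl2, 1 mM DTT, 0.1% BSA, 2.5% DMSO. Enzyme and peptide are preincubated 15 min before ATP is added.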

[2] = molecular target: PIM2 (Homo sapiens, UniProt Q9P1W9); assay: KinaseGlo Pim2 ATP depletion assay; assay type: biochemical
In short: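 Compound sat 15 min with enzyme and BAD peptide before ATP was added; final levels 5 nM PIM2, 10 μM peptide, 4 μM ATP, 2.5% DMSO, pH 7.5 HEPES buffer with MgCl2, DTT, BSA. Stopped near 50% ATP consumption; remaining ATP measured by luciferase luminescence.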

[3] = molecular target: PIM1 (Homo sapiens, UniProt P11309); assay: KinaseGlo Pim1 ATP depletion assay; assay type: biochemical
In short: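 IC50 is derived from residual ATP measured by KinaseGlo Plus luminescence once about half the ATP was consumed. Final conditions were 20 μM ATP, 40 μM BAD peptide and 2.5 nM kinase in HEPES pH 7.5 buffer with MgCl2, DTT and BSA, plus 2.5% DMSO. Compound and enzyme were premixed 15 min before ATP addition.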

[4] = molecular target: PIM3 (Homo sapiens, UniProt Q86V86); assay: KinaseGlo Pim3 ATP depletion assay; assay type: biochemical
In short: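 Residual ATP was detected by luciferase luminescence once about half had been consumed. The reaction contained 5 nM enzyme, 100 μM BAD peptide (RSRHSSYPAGT) and 40 μM ATP in 50 mM HEPES pH 7.5, 5 mM MgCl2, 1 mM DTT and 0.05% BSA with 2.5% DMSO. Compound and enzyme/peptide were premixed 15 min before ATP.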

[5] = system: KMS11 (human myeloma cell line); assay: Cell proliferation assay (CellTiter-Glo), KMS11; assay type: cell-based; conditions: KMS11-Luc cells
Protocol: KMS11 (human myeloma cell line), were cultured in IMDM supplemented with 10% FBS, sodium pyruvate and antibiotics. Cells were plated in the same medium at a density of 2000 cells per well into 96 well tissue culture plates, with outside wells vacant, on the day of assay. MMl.s (human myeloma cell line), were cultured in RPMI1640 supplemented with 10% FBS, sodium pyruvate and antibiotics. Cells were plated in the same medium at a density of 5000 cells per well into 96 well tissue culture plates, with outside wells vacant, on the day of assay.
Test compounds supplied in DMSO were diluted into DMSO at 500 times the desired final concentrations before dilution into culture media to 2 times final concentrations. Equal volumes of 2× compounds were added to the cells in 96 well plates and incubated at 37° C. for 3 days.
After 3 days plates were equilibrated to room temperature and equal volume of CellTiter-Glow Reagent (Promega) was added to the culture wells. The plates were agitated briefly and luminescent signal was measured with luminometer.
Using the procedures of Cell Proliferation Assay, the EC50 concentration of indicated compounds of the examples in were determined in KMS11 cells as shown in Table 4.

Chain of PIM2 (Q9P1W9 whole entry): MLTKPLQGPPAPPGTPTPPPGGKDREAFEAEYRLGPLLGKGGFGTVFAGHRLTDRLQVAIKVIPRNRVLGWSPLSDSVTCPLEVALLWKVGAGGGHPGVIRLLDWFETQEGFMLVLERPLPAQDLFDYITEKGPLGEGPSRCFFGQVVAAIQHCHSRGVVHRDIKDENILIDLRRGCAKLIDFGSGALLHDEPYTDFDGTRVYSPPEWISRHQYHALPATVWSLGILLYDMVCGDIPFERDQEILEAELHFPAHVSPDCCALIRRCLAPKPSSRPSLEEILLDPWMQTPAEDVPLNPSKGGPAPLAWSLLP
Chain of GSK3β (P49841 whole entry, species assumed): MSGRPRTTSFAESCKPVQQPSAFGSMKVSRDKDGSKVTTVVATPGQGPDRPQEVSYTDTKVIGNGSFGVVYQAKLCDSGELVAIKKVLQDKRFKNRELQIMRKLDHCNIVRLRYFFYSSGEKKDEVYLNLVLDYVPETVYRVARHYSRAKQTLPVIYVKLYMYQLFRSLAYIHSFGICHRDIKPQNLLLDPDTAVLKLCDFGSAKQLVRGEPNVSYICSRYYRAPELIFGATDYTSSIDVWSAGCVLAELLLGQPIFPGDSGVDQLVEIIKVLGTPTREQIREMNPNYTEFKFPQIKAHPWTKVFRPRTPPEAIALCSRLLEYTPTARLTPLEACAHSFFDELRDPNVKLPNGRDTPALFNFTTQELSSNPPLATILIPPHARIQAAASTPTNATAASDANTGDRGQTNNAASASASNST
Chain of PIM1 (P11309 whole entry): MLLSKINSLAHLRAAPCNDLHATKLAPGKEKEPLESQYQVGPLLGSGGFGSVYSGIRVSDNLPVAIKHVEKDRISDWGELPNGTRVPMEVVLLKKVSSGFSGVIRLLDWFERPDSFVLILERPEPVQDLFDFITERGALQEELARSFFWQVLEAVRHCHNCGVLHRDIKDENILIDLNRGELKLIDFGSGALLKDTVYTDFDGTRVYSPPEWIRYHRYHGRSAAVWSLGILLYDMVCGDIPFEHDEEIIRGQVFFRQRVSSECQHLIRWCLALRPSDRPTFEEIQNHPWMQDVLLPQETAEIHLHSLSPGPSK

| Structure (SMILES) | IC50 [1] | IC50 [2] | IC50 [3] | IC50 [4] | EC50 [5] | EC50 ([5]; Homo sapiens, KMS-11) |
| --- | --- | --- | --- | --- | --- | --- |
| N#CC[C@H]1O[C@@H](c2ccncc2NC(=O)c2nc(-c3c(F)cccc3F)ncc2N)C[C@@H](O)[C@@H]1O [Example 153, 5-amino-N-(4-((2R,4R,5S,6R)-6-(cyanomethyl)-4,5-dihydroxytetrahydro-2H-pyran-2-yl)pyridin-3-yl)-2-(2,6-difluorophenyl)pyrimidine-4-carboxamide] | 235 nM | 26.7 nM | 23.6 nM | 13.5 nM | > 10000 nM |  |
| O=C(Nc1cnccc1[C@H]1C[C@@H](O)[C@@]2(O)CCCC[C@H]2O1)c1ccnn(-c2ccccc2F)c1=O [Example 190, N-(4-((2R,4R,4aS,8aR)-4,4a-dihydroxyoctahydro-2H-chromen-2-yl)pyridin-3-yl)-2-(2-fluorophenyl)-3-oxo-2,3-dihydropyridazine-4-carboxamide] | 38.5 nM | 494 nM | 33.9 nM | 35.5 nM |  | > 10000 nM |
| CC[C@]1(O)[C@H](O)C[C@H](c2ccncc2NC(=O)c2nc(-c3ccnnc3)ccc2N)O[C@@H]1C [Example 160, 3-amino-N-(4-((2R,4R,5S,6R)-5-ethyl-4,5-dihydroxy-6-methyltetrahydro-2H-pyran-2-yl)pyridin-3-yl)-6-(pyridazin-4-yl)picolinamide] | 67.4 nM | 1640 nM | 166 nM | 260 nM |  | > 10000 nM |
| C=C1[C@@H](O)C[C@@H](c2ccncc2NC(=O)c2ccc(F)c(-c3c(F)cccc3F)n2)OC12CC2 [Example 7, 6-(2,6-difluorophenyl)-5-fluoro-N-(4-((5S,7S)-7-hydroxy-8-methylene-4-oxaspiro[2.5]octan-5-yl)pyridin-3-yl)picolinamide] | 879 nM | 151 nM | 8 nM | 17 nM |  | > 10000 nM |
| O=C(Nc1cnccc1C1=C[C@@H](O)[C@H](O)[C@@H](CCl)O1)c1ccc(F)c(-c2c(F)cccc2F)n1 [Example 31, N-(4-((2S,3S,4R)-2-(chloromethyl)-3,4-dihydroxy-3,4-dihydro-2H-pyran-6-yl)pyridin-3-yl)-6-(2,6-difluorophenyl)-5-fluoropicolinamide] | 117 nM | 1 nM | 1 nM | 1 nM |  | 1900 nM |
| O=C(Nc1cnccc1[C@@H]1OCC[C@H](CO)O1)c1ccc(F)c(-c2c(F)cccc2F)n1 [Example 100, 6-(2,6-difluorophenyl)-5-fluoro-N-(4-((2R,4R)-4-(hydroxymethyl)-1,3-dioxan-2-yl)pyridin-3-yl)picolinamide] | 2470 nM | 799 nM | 10 nM | 42 nM |  | > 10000 nM |
| C[C@H]1O[C@@H](c2ccncc2NC(=O)c2ccc(F)c(-c3c(F)cccc3F)n2)[C@H](O)[C@@H](O)[C@]1(C)O (stereo in doubt) [Example 81, 6-(2,6-difluorophenyl)-5-fluoro-N-(4-((2S,3R,4R,5S,6R)-3,4,5-trihydroxy-5,6-dimethyltetrahydro-2H-pyran-2-yl)pyridin-3-yl)picolinamide] | 854 nM | 720 nM | 31 nM | 44 nM |  | > 10000 nM |
| C=C[C@H]1OC(c2ccncc2NC(=O)c2ccc(F)c(-c3c(F)cccc3F)n2)=C[C@@H](O)[C@@H]1O [Example 44, 6-(2,6-difluorophenyl)-N-(4-((2R,3S,4R)-3,4-dihydroxy-2-vinyl-3,4-dihydro-2H-pyran-6-yl)pyridin-3-yl)-5-fluoropicolinamide] | 339 nM | 1 nM | 1 nM | 1 nM |  | 900 nM |
| C[C@H]1[C@H](C)O[C@H](c2ccncc2NC(=O)c2csc(-c3c(F)cccc3F)n2)C[C@@H]1O (stereo in doubt) [Example 94, 2-(2,6-difluorophenyl)-N-(4-((2S,4S,5R,6S)-4-hydroxy-5,6-dimethyltetrahydro-2H-pyran-2-yl)pyridin-3-yl)thiazole-4-carboxamide] | 11 nM | 246 nM | 1 nM | 9 nM |  | 4200 nM |
| O=C(Nc1cnccc1[C@@H]1OCC[C@H](CO)O1)c1csc(-c2c(F)cccc2F)n1 [Example 99, 2-(2,6-difluorophenyl)-N-(4-((2R,4R)-4-(hydroxymethyl)-1,3-dioxan-2-yl)pyridin-3-yl)thiazole-4-carboxamide] | 3170 nM | 3380 nM | 14 nM | 75 nM |  | > 10000 nM |
| C[C@H]1O[C@@H](c2ccncc2NC(=O)c2ccc(F)c(-c3c(F)cccc3F)n2)C[C@@H](N)[C@@H]1O [Example 116, N-(4-((2R,4R,5S,6R)-4-amino-5-hydroxy-6-methyltetrahydro-2H-pyran-2-yl)pyridin-3-yl)-6-(2,6-difluorophenyl)-5-fluoropicolinamide] | 3060 nM | 23 nM | 2 nM | 7 nM |  | 1900 nM |
| CC[C@H]1O[C@@H](c2ccncc2NC(=O)c2nc(-c3ccccc3F)c(F)cc2N)C[C@@H](O)[C@@H]1O [Example 42, 3-amino-N-(4-((2R,4R,5S,6R)-6-ethyl-4,5-dihydroxytetrahydro-2H-pyran-2-yl)pyridin-3-yl)-5-fluoro-6-(2-fluorophenyl)picolinamide] | 23 nM | 3 nM | 1 nM | 1 nM |  | 9600 nM |
| N#C[C@H]1O[C@@H](c2ccncc2NC(=O)c2nc(-c3c(F)cccc3F)c(F)cc2N)C[C@@H](O)[C@@H]1O [Example 12, 3-amino-N-(4-((2R,4R,5S,6R)-6-cyano-4,5-dihydroxytetrahydro-2H-pyran-2-yl)pyridin-3-yl)-6-(2,6-difluorophenyl)-5-fluoropicolinamide] | 220 nM | 5 nM | 1 nM | 3 nM |  | 7650 nM |
| O=C(Nc1cnccc1[C@@H]1C[C@H](O)[C@]2(O)CCCC[C@@H]2O1)c1ccc(F)c(-c2c(F)cccc2F)n1 [Example 177, 6-(2,6-difluorophenyl)-N-(4-((2S,4S,4aR,8aS)-4,4a-dihydroxyoctahydro-2H-chromen-2-yl)pyridin-3-yl)-5-fluoropicolinamide] | 1060 nM | 171 nM | 38.6 nM | 162 nM |  | 6830 nM |
| C=C[C@H]1OC(c2ccncc2NC(=O)c2ccnc(-c3c(F)cccc3F)n2)=C[C@@H](O)[C@@H]1O [Example 23, 2-(2,6-difluorophenyl)-N-(4-((2R,3S,4R)-3,4-dihydroxy-2-vinyl-3,4-dihydro-2H-pyran-6-yl)pyridin-3-yl)pyrimidine-4-carboxamide] | 200 nM | 41 nM | 6 nM | 8 nM |  | > 10000 nM |
| O=C(Nc1cnccc1[C@H]1C[C@H](Cl)[C@H](O)[C@@H](CCl)O1)c1ccc(F)c(-c2c(F)cccc2F)n1 [Example 55, N-(4-((2R,4S,5R,6S)-4-chloro-6-(chloromethyl)-5-hydroxytetrahydro-2H-pyran-2-yl)pyridin-3-yl)-6-(2,6-difluorophenyl)-5-fluoropicolinamide] | 911 nM | 101 nM | 2 nM | 26 nM |  | 5500 nM |
| N#C[C@H]1O[C@@H](c2ccncc2NC(=O)c2ccc(F)c(-c3c(F)cccc3F)n2)C[C@@H](O)[C@@H]1O [Example 13, N-(4-((2R,4R,5S,6R)-6-cyano-4,5-dihydroxytetrahydro-2H-pyran-2-yl)pyridin-3-yl)-6-(2,6-difluorophenyl)-5-fluoropicolinamide] | 583 nM | 12 nM | 1 nM | 5 nM |  | 8110 nM |
| CC[C@]1(O)[C@H](O)C[C@H](c2ccncc2NC(=O)c2nc(-c3nccs3)ccc2N)O[C@@H]1C [Example 3, 3-amino-N-(4-((2R,4R,5S,6R)-5-ethyl-4,5-dihydroxy-6-methyltetrahydro-2H-pyran-2-yl)pyridin-3-yl)-6-(thiazol-2-yl)picolinamide] | 1170 nM | 66 nM | 8.7 nM | 12 nM |  | > 10000 nM |
